Measured values reported in the CheMixHub ionic liquid set.

Test: xn = mol fraction of the nth substance listed

CCCCCCCCCCCCCCCC[n+]1ccccc1.O=C([O-])C(O)c1ccccc1 + C[C@H](N)C(=O)O + O
electrical conductivity [S/m], 101 kPa
Settings	293.15 K	298.15 K	303.15 K	308.15 K	313.15 K
x1 = 1.08e-06, x2 = 0	0.00061	0.00068	0.00076	0.00083	0.0009
x1 = 1.09e-06, x2 = 0.0009002	0.0006	0.00069	0.00077	0.00087	0.00098
x1 = 1.09e-06, x2 = 0.001799	0.00068	0.00078	0.00088	0.001	0.0011
x1 = 1.98e-06, x2 = 0	0.001	0.0012	0.0013	0.0014	0.0016
x1 = 2.17e-06, x2 = 0.0009002	0.00107	0.00122	0.0014	0.0015	0.0017
x1 = 2.18e-06, x2 = 0.001799	0.00104	0.0012	0.00135	0.0015	0.0017
x1 = 2.88e-06, x2 = 0	0.00147	0.0016	0.0018	0.002	0.0022
x1 = 3.26e-06, x2 = 0.0009002	0.0015	0.0017	0.0019	0.0021	0.0024
x1 = 3.45e-06, x2 = 0.001799	0.00147	0.00167	0.00187	0.0021	0.0024
x1 = 3.96e-06, x2 = 0	0.0019	0.0022	0.0024	0.0026	0.0029
x1 = 4.52e-06, x2 = 0.0009002	0.00197	0.0022	0.0025	0.0028	0.0031
x1 = 4.54e-06, x2 = 0.001799	0.0019	0.00216	0.0024	0.0027	0.003
x1 = 4.69e-06, x2 = 0	0.0023	0.0026	0.0029	0.0031	0.0035
x1 = 5.61e-06, x2 = 0.0009002	0.00243	0.00275	0.0031	0.0034	0.0038
x1 = 5.81e-06, x2 = 0.001799	0.00234	0.00265	0.0029	0.0033	0.0036
x1 = 5.95e-06, x2 = 0	0.00281	0.0032	0.0035	0.0038	0.0042
x1 = 6.87e-06, x2 = 0.0009002	0.00295	0.0033	0.0037	0.0041	0.0045
x1 = 7.21e-06, x2 = 0	0.00341	0.0038	0.0042	0.0046	0.0051
x1 = 7.26e-06, x2 = 0.001799	0.00287	0.00323	0.0036	0.004	0.0044
x1 = 8.32e-06, x2 = 0.0009002	0.00346	0.00391	0.0043	0.0048	0.0053
x1 = 8.71e-06, x2 = 0.001799	0.00335	0.00379	0.00423	0.0047	0.0052
x1 = 8.83e-06, x2 = 0	0.00406	0.0046	0.005	0.0055	0.006
x1 = 9.58e-06, x2 = 0.0009002	0.00394	0.00445	0.00497	0.0055	0.0061
x1 = 1.045e-05, x2 = 0	0.00469	0.0053	0.0058	0.0065	0.0071
x1 = 1.071e-05, x2 = 0.001799	0.0039	0.00441	0.00494	0.0055	0.0061
x1 = 1.121e-05, x2 = 0.0009002	0.00434	0.00493	0.00552	0.0062	0.0069
x1 = 1.207e-05, x2 = 0	0.00516	0.0058	0.0064	0.0071	0.0079
x1 = 1.216e-05, x2 = 0.001799	0.00419	0.00476	0.00533	0.00596	0.0067
x1 = 1.284e-05, x2 = 0.0009002	0.00475	0.0054	0.006	0.0067	0.0075
x1 = 1.351e-05, x2 = 0	0.00562	0.00631	0.007	0.0077	0.0085
x1 = 1.361e-05, x2 = 0.001799	0.00459	0.0052	0.00583	0.00654	0.0073
x1 = 1.411e-05, x2 = 0.0009002	0.00513	0.0058	0.00649	0.0072	0.0081
x1 = 1.478e-05, x2 = 0	0.00603	0.0068	0.0075	0.0083	0.0092
x1 = 1.506e-05, x2 = 0.001799	0.00495	0.00559	0.00626	0.007	0.0079
x1 = 1.519e-05, x2 = 0.0009002	0.00545	0.00616	0.0069	0.0077	0.0085
x1 = 1.622e-05, x2 = 0	0.00644	0.0072	0.008	0.0089	0.0098
x1 = 1.646e-05, x2 = 0.0009002	0.00578	0.00652	0.0073	0.0081	0.009
x1 = 1.651e-05, x2 = 0.001799	0.00526	0.00598	0.00669	0.0075	0.0083
x1 = 1.766e-05, x2 = 0	0.00687	0.0077	0.0085	0.0094	0.0104
x1 = 1.778e-05, x2 = 0.001799	0.00557	0.00629	0.00707	0.0079	0.0088

CCCCn1cc[nH+]c1.O=S(=O)([N-]S(=O)(=O)C(F)(F)F)C(F)(F)F + N
313.2 K, 101 kPa
Settings	viscosity [mPa·s]
x1 = 0.2924	9.9
x1 = 0.337	12.9
x1 = 0.4007	19.3
x1 = 0.4495	24.3
x1 = 0.477	27.7
x1 = 0.4904	29.1
x1 = 0.575	38.7
x1 = 0.6515	45.8
x1 = 0.7028	51.3
x1 = 0.7906	54.5
x1 = 0.8999	52.5
x1 = 1	47.2

C[S+](C)C.O=S(=O)([N-]S(=O)(=O)C(F)(F)F)C(F)(F)F + N#CCCCC#N
101 kPa, x1 = 0.2085
Settings	viscosity [mPa·s]
278 K	21.84
303 K	9.44
318 K	6.433
328 K	5.159
333 K	4.664
338 K	4.238
348 K	3.558

CCCCCC[n+]1ccn(C)c1.F[B-](F)(F)F + NC(N)=O + O
298.15 K, 100 kPa
Settings	viscosity [mPa·s]
x2 = 0, x1 = 0.0153	2.79
x2 = 0.008814, x3 = 0.9759	2.96
x2 = 0.01758, x3 = 0.9671	2.88
x2 = 0.02591, x3 = 0.9588	2.91
x2 = 0.03448, x3 = 0.9502	2.92
x2 = 0.04235, x3 = 0.9424	2.94
